Test results as given in patent US6355799B1, “Substituted benzene compounds, process for their preparation, and herbicidal and defoliant compositions containing them” (ISK Americas Incorporated, priority 1997, dated 2002).

Columns and labels:
Format in all cases: in vivo
[1] = system: velvetleaf (Abutilon theophrasti, ABUTH); experiment: Post-emerge test, greenhouse herbicide activity screening; conditions: post-emerge, phytotoxicity rating 0-100 at 14 days after application
Method in brief: (§1)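 Visual ratings on a 0-100 scale (0 no damage, 100 all plants dead) were taken at 14 days after treatment. Rates of 15-1000 g ai/ha in acetone, 187 l/ha, were sprayed onto soil one day after planting (pre-emerge) or onto 2-3 leaf plants with 0.25% v/v surfactant (post-emerge).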

[2] = system: johnsongrass (Sorghum halepense, SORHA); experiment: as above; conditions: post-emerge, phytotoxicity rating 0-100 at 14 days after application
Method in brief: as §1

[3] = system: ivyleaf morningglory (Ipomoea hederacea, IPOHE); experiment: as above; conditions: post-emerge, phytotoxicity rating 0-100 at 14 days after application
Method in brief: as §1

[4] = system: barnyardgrass (Echinochloa crus-galli, ECHCG); experiment: as above; conditions: post-emerge, phytotoxicity rating 0-100 at 14 days after application
Method in brief: as §1

[5] = system: lambsquarters (Chenopodium album, CHEAL); experiment: as above; conditions: post-emerge, phytotoxicity rating 0-100 at 14 days after application
Method in brief: as §1

[6] = system: sicklepod (Cassia obtusifolia, CASOB); experiment: as above; conditions: post-emerge, phytotoxicity rating 0-100 at 14 days after application
Method in brief: as §1

[7] = system: redroot pigweed (Amaranthus retroflexus, AMARE); experiment: as above; conditions: post-emerge, phytotoxicity rating 0-100 at 14 days after application
Method in brief: as §1

[8] = system: large crabgrass (Digitaria sanguinalis, DIGSA); experiment: as above; conditions: post-emerge, phytotoxicity rating 0-100 at 14 days after application
Method in brief: as §1

[9] = system: green foxtail (Setaria viridis, SETVI); experiment: as above; conditions: post-emerge, phytotoxicity rating 0-100 at 14 days after application
Method in brief: as §1

[10] = system: redroot pigweed (Amaranthus retroflexus, AMARE); experiment: Pre-emerge test, greenhouse herbicide activity screening; conditions: pre-emerge, phytotoxicity rating 0-100 at 14 days after application
Method in brief: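 Compounds in acetone were track-sprayed at 187 l/ha, 15–1000 g ai/ha, onto sandy loam pots. Pre-emerge seeds were sown one day before spraying, with surface watering afterwards. Post-emerge plants were at the 2–3 leaf stage and sprayed with 0.25% v/v non-ionic surfactant. Injury was rated 0–100 at 14 days.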

[11] = system: velvetleaf (Abutilon theophrasti, ABUTH); experiment: as above; conditions: pre-emerge, phytotoxicity rating 0-100 at 14 days after application
Method in brief: (§2)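 Fourteen days after spraying, crop and weed injury was graded visually from 0, no effect, to 100, every plant dead. Test substances were dissolved in acetone and applied at 15–1000 g ai/ha with a flat-fan nozzle. Application was either pre-emergence, one day after sowing, or post-emergence at the 2–3 leaf stage.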

[12] = system: johnsongrass (Sorghum halepense, SORHA); experiment: as above; conditions: pre-emerge, phytotoxicity rating 0-100 at 14 days after application
Method in brief: as §2

[13] = system: ivyleaf morningglory (Ipomoea hederacea, IPOHE); experiment: as above; conditions: pre-emerge, phytotoxicity rating 0-100 at 14 days after application
Method in brief: as §2

[14] = system: barnyardgrass (Echinochloa crus-galli, ECHCG); experiment: as above; conditions: pre-emerge, phytotoxicity rating 0-100 at 14 days after application
Method in brief: as §2

[15] = system: lambsquarters (Chenopodium album, CHEAL); experiment: as above; conditions: pre-emerge, phytotoxicity rating 0-100 at 14 days after application
Method in brief: as §2

[16] = system: sicklepod (Cassia obtusifolia, CASOB); experiment: as above; conditions: pre-emerge, phytotoxicity rating 0-100 at 14 days after application
Method in brief: as §2

[17] = system: large crabgrass (Digitaria sanguinalis, DIGSA); experiment: as above; conditions: pre-emerge, phytotoxicity rating 0-100 at 14 days after application
Method in brief: as §2

[18] = system: green foxtail (Setaria viridis, SETVI); experiment: as above; conditions: pre-emerge, phytotoxicity rating 0-100 at 14 days after application
Method in brief: as §2

[19] = system: upland rice (Oryza sp., var. Tebonnet, RICE); experiment: Pre-emerge test, crop safety; conditions: crop damage, pre-emerge, phytotoxicity rating 0-100 at 14 days after application
Method in brief: (§3)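 Compounds in acetone were track-sprayed at 15-1000 g ai/ha (187 l/ha) on sandy loam pots: pre-emerge one day after seeding, post-emerge at 2-3 leaf stage with 0.25% v/v non-ionic surfactant. Phytotoxicity was rated 14 days later on a 0 (no damage) to 100 (complete death) scale.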

[20] = system: field corn (Zea mays L., var. Dekalb 535, CORN); experiment: Pre-emerge test, crop safety; conditions: crop damage, pre-emerge, phytotoxicity rating 0-100 at 14 days after application
Method in brief: as §3

[21] = system: upland rice (Oryza sp., var. Tebonnet, RICE); experiment: Post-emerge test, crop safety; conditions: post-emerge, crop damage rating 0-100 at 14 days after application
Method in brief: as §2

[22] = system: field corn (Zea mays L., var. Dekalb 535, CORN); experiment: Post-emerge test, crop safety; conditions: post-emerge, crop damage rating 0-100 at 14 days after application
Method in brief: as §2

C=Cc1ccc(C(=O)Nc2c(OC)c(Cl)cc(F)c2N2C(=O)C3=C(CCCC3)C2=O)cc1 [8-30]
30: Post-emerge Herbicidal Activity SORHA ([2]; 63 g ai/ha) | Post-emerge Herbicidal Activity ECHCG ([4]; 63 g ai/ha) | Pre-emerge Herbicidal Activity SORHA ([12]; rate 250 g ai/ha) | Pre-emerge Herbicidal Activity DIGSA ([17]; rate 63 g ai/ha)
90: Pre-emerge Herbicidal Activity ABUTH ([11]; rate 250 g ai/ha)
15: Post-emerge Herbicidal Activity CORN ([22]; 250 g ai/ha)
70: Post-emerge Herbicidal Activity ECHCG ([4]; 250 g ai/ha) | Post-emerge Herbicidal Activity SETVI ([9]; 250 g ai/ha) | Pre-emerge Herbicidal Activity ABUTH ([11]; rate 63 g ai/ha) | Pre-emerge Herbicidal Activity SETVI ([18]; rate 250 g ai/ha)
5: Pre-emerge Herbicidal Activity RICE ([19]; rate 63 g ai/ha) | Pre-emerge Herbicidal Activity CORN ([20]; rate 250 g ai/ha)
0: Pre-emerge Herbicidal Activity SORHA ([12]; rate 63 g ai/ha) | Pre-emerge Herbicidal Activity ECHCG ([14]; rate 63 g ai/ha) | Pre-emerge Herbicidal Activity CORN ([20]; rate 63 g ai/ha)
35: Post-emerge Herbicidal Activity RICE ([21]; 250 g ai/ha)
80: Post-emerge Herbicidal Activity CASOB ([6]; 63 g ai/ha)
100: Post-emerge Herbicidal Activity ABUTH ([1]; 63 g ai/ha) | Post-emerge Herbicidal Activity ABUTH ([1]; 250 g ai/ha) | Post-emerge Herbicidal Activity IPOHE ([3]; 63 g ai/ha) | Post-emerge Herbicidal Activity IPOHE ([3]; 250 g ai/ha) | Post-emerge Herbicidal Activity CHEAL ([5]; 63 g ai/ha) | Post-emerge Herbicidal Activity CHEAL ([5]; 250 g ai/ha) | Post-emerge Herbicidal Activity CASOB ([6]; 250 g ai/ha) | Post-emerge Herbicidal Activity AMARE ([7]; 63 g ai/ha) | Post-emerge Herbicidal Activity AMARE ([7]; 250 g ai/ha) | Pre-emerge Herbicidal Activity AMARE ([10]; rate 63 g ai/ha) | Pre-emerge Herbicidal Activity AMARE ([10]; rate 250 g ai/ha) | Pre-emerge Herbicidal Activity CHEAL ([15]; rate 63 g ai/ha) | Pre-emerge Herbicidal Activity CHEAL ([15]; rate 250 g ai/ha)
10: Pre-emerge Herbicidal Activity IPOHE ([13]; rate 250 g ai/ha) | Pre-emerge Herbicidal Activity RICE ([19]; rate 250 g ai/ha) | Post-emerge Herbicidal Activity CORN ([22]; 63 g ai/ha)
50: Post-emerge Herbicidal Activity SORHA ([2]; 250 g ai/ha) | Pre-emerge Herbicidal Activity DIGSA ([17]; rate 250 g ai/ha)
40: Post-emerge Herbicidal Activity DIGSA ([8]; 250 g ai/ha) | Post-emerge Herbicidal Activity SETVI ([9]; 63 g ai/ha) | Post-emerge Herbicidal Activity RICE ([21]; 63 g ai/ha)
20: Post-emerge Herbicidal Activity DIGSA ([8]; 63 g ai/ha) | Pre-emerge Herbicidal Activity IPOHE ([13]; rate 63 g ai/ha) | Pre-emerge Herbicidal Activity ECHCG ([14]; rate 250 g ai/ha) | Pre-emerge Herbicidal Activity CASOB ([16]; rate 63 g ai/ha) | Pre-emerge Herbicidal Activity CASOB ([16]; rate 250 g ai/ha) | Pre-emerge Herbicidal Activity SETVI ([18]; rate 63 g ai/ha)
